The test system of data set [1] is human cervical cancer cell line ME-180. Details: method as in PMID 24332497. The conditions noted are these: read-out: Cytotoxicity IC50, ME-180; cited from earlier work.
The test system of data set [2] is 22RV1 cells. The data set is described as follows: MTT antiproliferative assay, 22RV1 cells. The format is cell-based. The conditions noted are these: for IC50: MTT assay, exposure for 72 h. Here is the method: (§1) PC3, C42B, 22RV1, and LNCAP cell lines were cultured in an atmosphere containing 5% CO2 at 37 °C, with RPMI-1640 medium with 10% foetal bovine serum, 100 U/ml penicillin and 0.1 mg/ml streptomycin. Cells were seeded at a density of 1500 per well in 96-well plates for 72 h. Then, 20 μL MTT (thiazolyl blue tetrazolium bromide) solution was added to each well, and incubated for 4 h at 37 °C. 150 μL DMSO was added to each well to dissolve the formazan after removing the liquid, the absorbance was determined at 570 nm.
To discovery novel anti-prostate cancer agents and tubulin polymerisation inhibitors, we evaluated the antiproliferative activity of all benzothiazole derivatives 9a∼9k and 12a∼12d against a prostate cancer cell line 22RV1 using the 3–(4,5-dimethyl-2-thiazolyl)-2,5-diphenyl-2-H-tetrazolium bromide (MTT) assay. Based on previous references, [5]-fluorouracil (5-Fu) and was usually selected as a reference drug in the MTT assay to evaluate the antiproliferative activity of synthetic benzothiazole derivatives[26]^,[27]. Therefore, 5-Fu was used as the control drug in this work. In addition, compound 4 was also the control drug to compare the antiproliferative activity.
Background: Tetrazolium dyes change colour on reduction, which living cells bring about.

Data set [3] has as its system PC3 cells. In words: MTT antiproliferative assay, PC3 cells. The format is cell-based. The conditions noted are these: Homo sapiens, PC-3. As for the experimental part:
as §1
(§2) Compound 12a was further examined for possible cytotoxicity against RWPE-1 (normal human prostatic cell line). […] To evaluate its antiproliferative activity against other prostate cancer cell lines, C42B, LNCAP and PC3 cells were selected to perform MTT assay.

The next data set relates to LNCAP cells. The data set is described as follows: MTT antiproliferative assay, LNCAP cells. The format is cell-based. The conditions noted are these: Homo sapiens. Here is the method:
as §1, §2

A further data set relates to C42B cells. The data set is described as follows: MTT antiproliferative assay, C42B cells. The format is cell-based. Here is the method: as §1, §2
Data set [4] can be described thus: Cytotoxicity against normal prostatic cell line RWPE-1. The format is cell-based. The conditions noted are these: RWPE-1 normal prostatic cells; normal human prostatic cell line. As for the experimental part: as §1, §2
A further data set deals with tubulin. The data set is described as follows: In vitro tubulin polymerisation assay. The format is biochemical. As to conditions: tubulin 5.6 mg/ml in PEM buffer, read-out: Tubulin polymerisation inhibition IC50. Here is the method: Tubulin (5.6 mg/ml) was resuspended in PEM buffer (containing 80 mM PIPES, […], 1 mM EGTA, 10.2% glycerol, 0.5 mM MgCl2) and then was preincubated with compound 12a, colchicine or vehicle DMSO on ice. The reaction was monitored by a spectrophotometer in […] at 420 nm (excitation wavelength is 340 nm).
The in vitro tubulin polymerisation inhibition activity of compound 12a was evaluated because of its best antiproliferative activity results among all benzothiazole hybrids. When tubulin was incubated with the tested compound 12a, the increased tendency of the fluorescence intensity was obviously slowed down compared with the control.

Data set [5] relates to microtubule network in PC3 cells. In words: Immunofluorescence staining of microtubules in PC3 cells. The conditions noted are these: 48 h. The format is cell-based. As for the experimental part:
PC3 cells were seeded on the slices and incubated overnight. Then, cells were treated with different concentrations of 12a. After 48 h, slices were fixed by 4% paraformaldehyde for 15 min after washed by PBS for 3 times. 0.5% Triton-X-100 was added and shaked for 20 min. 0.1% BSA was used to block for 30 min and then removed. The slices were added β-tubulin antibody (1:100) and incubated overnight. Then slices were washed by PBST 3 times, bind with secondary antibody with FITC signal (1:500) in a dark. DAPI was used to stain for 3 min and then removed. After that, images were captured by Laser scanning confocal microscope (Nikon, Japan).
As the microtubule system played an important role in the maintenance of cell shape and basic cellular functions, an immunofluorescence staining assay was performed to study whether benzothiazole hybrid 12a could disrupt the microtubule dynamics in living cells.

The test system of data set [6] is colchicine-binding site of β-tubulin. The data set is described as follows: EBI competition assay in PC3 cells. The format is cell-based. The conditions noted are these: preincubation at 10 μM, Western blot. Here is the method:
6-Well plates were seeded with PC3 cells for 24 h. Then, cells were incubated with compound 12a, colchicine or DMSO for 2 h and afterward treated with EBI ([…]) for 2 h. Then, the cells were harvested and lysed. Cell extracts were used for Western blotting analysis.
(§3) Cellular protein lysates were denatured in loading buffer at 100 °C prior to adding into SDS-PAGE. Proteins were transferred to nitrocellulose membranes, probed with indicated antibodies, and visualised by an enhanced chemiluminescence detection system. The western blotting bands were semi-quantified using Image J and adjusted for loading control.
In order to evaluate whether benzothiazole hybrid 12a directly binds to tubulin at the colchicine binding site, we carried out N,N′-ethylenebis(iodoacetamide) (EBI) competition assay in PC3 cells according to previously published references[29]^,[30]. EBI is an alkylating agent that has the property to specifically cross-link the Cys239 and the Cys354 residues of β-tubulin involved in the colchicine-binding site[31]. The occupancy of colchicine-binding site by tubulin polymerisation inhibitors could inhibit the formation of the EBI: β-tubulin adduct.
Background: A western blot detects proteins with antibodies after separation by electrophoresis.

In data set [7] the test system is 22RV1 cells. In words: DAPI staining, 22RV1 cells. The format is cell-based. As to conditions: 22RV1 cells, 1, 2 and 4 μM, 48 h. As for the experimental part: (§4) Cells were seeded on a 6-well plate (2 × 10^5/well) and treated with the test compound after the incubation for 24 h. Then, cells were stained by DAPI (4′,6-diamidino-2-phenylindole) in the dark for 30 min.

Data set [8] relates to PC3 cells. The data set is described as follows: DAPI staining, PC3 cells. The format is cell-based. As to conditions: PC3 cells, 1, 2 and 4 μM, 48 h. As for the experimental part:
as §4

The subject of data set [9] is apoptosis-related proteins (Bcl-2 and Cleaved-parp). In words: Western blot of apoptosis-related proteins, 22RV1 cells. The format is cell-based. As to conditions: concentration-dependent. As for the experimental part:
as §3
(§5) Bcl-2 family proteins are key regulators of apoptosis and overexpression of the prominent pro-survival Bcl-2 family members like Bcl-2 is a common feature responsible for deregulation of apoptosis in prostate cancer cells. In order to investigate the apoptosis effects of compound 12a, the expression of apoptosis-related proteins (Bcl-2 and Cleaved-parp) were tested. As shown in the Figure 6(B), the expression level of Bcl-2 was decreased and the expression level of Cleaved-parp was increased in a concentration-dependent manner against prostate cancer (22RV1 cells and PC3 cells).

Data set [10] has the same test system. The data set is described as follows: Western blot of apoptosis-related proteins, PC3 cells. The format is cell-based. As to conditions: concentration-dependent. Here is the method: as §3, §5

One may read the IC50 as the concentration at which inhibition is half-maximal. For orientation: melting point means the temperature of the solid-liquid transition.

Consider `CCOc1ccc2nc(N3CN(c4ccccc4)c4ccccc4C3=O)sc2c1` [Compound 3], for which the IC50 in [1] is 4.01 µM.

With `COc1ccc(CN(C(=O)CSc2nc3ccccc3o2)c2cc(OC)c(OC)c(OC)c2)cc1` [Compound 4, reference compound], the IC50 was found to be 6.48 ± 0.25 µM in the data set on 22RV1 cells [2] (Homo sapiens, 22Rv1); 3530 nM in the data set with PC3 cells [3]; 10 µM with LNCAP cells.

`O=c1[nH]cc(F)c(=O)[nH]1` [Compound 5-FU, [5]-fluorouracil, reference compound] displayed an IC50 in the data set on 22RV1 cells [2] of 18.3 ± 1.27 µM.

With `COc1cc(N(Cc2ccc(F)cc2)C(=O)CSc2nc3ccccc3s2)cc(OC)c1OC` [Compound 9a, 2-(Benzo[d]thiazol-2-ylthio)-N-(4-fluorobenzyl)-N-(3,4,5-trimethoxyphenyl)acetamide], half-maximal inhibition in the data set on 22RV1 cells [2] (Homo sapiens, 22Rv1, 72 h) (IC50) was put at 16.2 ± 0.84 µM.

As to `COc1cc(N(Cc2cccc(Cl)c2)C(=O)CSc2nc3ccccc3s2)cc(OC)c1OC` [Compound 9b, 2-(Benzo[d]thiazol-2-ylthio)-N-(3-chlorobenzyl)-N-(3,4,5-trimethoxyphenyl)acetamide], the “Fold activity loss when p-Br replaced with m-Cl (9d vs. 9b)” value in the data set with 22RV1 cells [2] (22RV1 cells, ratio of IC50 values) is listed as “over 3 fold”. In addition, the IC50 in the data set on 22RV1 cells [2] (Homo sapiens, 22Rv1, 72 h) is more than 12 µM; in the data set with 22RV1 cells [2], 19.1 ± 1.15 µM.

As for `COc1cc(N(Cc2ccc(Cl)cc2)C(=O)CSc2nc3ccccc3s2)cc(OC)c1OC` [Compound 9c, 2-(Benzo[d]thiazol-2-ylthio)-N-(4-chlorobenzyl)-N-(3,4,5-trimethoxyphenyl)acetamide], the IC50 in the data set with 22RV1 cells [2] (Homo sapiens, 22Rv1, 72 h) was more than 12 µM; with 22RV1 cells [2], 12.2 ± 0.58 µM.

In turn, `COc1cc(N(Cc2ccc(Br)cc2)C(=O)CSc2nc3ccccc3s2)cc(OC)c1OC` [Compound 9d, 2-(Benzo[d]thiazol-2-ylthio)-N-(4-bromobenzyl)-N-(3,4,5-trimethoxyphenyl)acetamide] had an IC50 with 22RV1 cells [2] (Homo sapiens, 22Rv1, 72 h) of 6.2 ± 0.71 µM.

`COc1cc(N(Cc2ccc(C)cc2)C(=O)CSc2nc3ccccc3s2)cc(OC)c1OC` [Compound 9e, 2-(Benzo[d]thiazol-2-ylthio)-N-(4-methylbenzyl)-N-(3,4,5-trimethoxyphenyl)acetamide] yielded a 50% inhibitory concentration (IC50) with 22RV1 cells [2] (Homo sapiens, 22Rv1, 72 h) of 8.25 ± 0.43 µM.

`COc1cc(N(Cc2ccccc2)C(=O)CSc2nc3ccccc3s2)cc(OC)c1OC` [Compound 9f, 2-(Benzo[d]thiazol-2-ylthio)-N-benzyl-N-(3,4,5-trimethoxyphenyl)acetamide] returned an IC50 in the data set with 22RV1 cells [2] (Homo sapiens, 22Rv1, 72 h) of 9.06 ± 0.17 µM.

Turning to `COc1cccc(CN(C(=O)CSc2nc3ccccc3s2)c2cc(OC)c(OC)c(OC)c2)c1` [Compound 9g, 2-(Benzo[d]thiazol-2-ylthio)-N-(3-methoxybenzyl)-N-(3,4,5-trimethoxyphenyl)acetamide], the IC50 in the data set with 22RV1 cells [2] (Homo sapiens, 22Rv1, 72 h) is 7.37 ± 0.56 µM.

Consider `COc1ccc(CN(C(=O)CSc2nc3ccccc3s2)c2cc(OC)c(OC)c(OC)c2)cc1` [Compound 9h, 2-(Benzo[d]thiazol-2-ylthio)-N-(4-methoxybenzyl)-N-(3,4,5-trimethoxyphenyl)acetamide], for which the IC50 in the data set with 22RV1 cells [2] (Homo sapiens, 22Rv1, 72 h) worked out at 5.24 µM.

The compound `COc1ccc(CN(C(=O)CSc2nc3ccccc3s2)c2ccc(C)cc2)cc1` [Compound 9i, 2-(Benzo[d]thiazol-2-ylthio)-N-(4-methoxybenzyl)-N-(p-tolyl)acetamide] registered an IC50 in the data set with 22RV1 cells [2] (Homo sapiens, 22Rv1, 72 h) of more than 20 µM.

`COc1ccc(CN(C(=O)CSc2nc3ccccc3s2)c2ccc(Cl)c(Cl)c2)cc1` [Compound 9j, 2-(Benzo[d]thiazol-2-ylthio)-N-(3,4-dichlorophenyl)-N-(4-methoxybenzyl)acetamide] registered an IC50 in the data set with 22RV1 cells [2] (Homo sapiens, 22Rv1, 72 h) of more than 20 µM.

In turn, `COc1ccc(CN(C(=O)CSc2nc3ccccc3s2)c2ccccc2)cc1` [Compound 9k, 2-(Benzo[d]thiazol-2-ylthio)-N-(4-methoxybenzyl)-N-phenylacetamide] yielded a melting point of 109 to 110 °C. The IC50 in the data set with 22RV1 cells [2] (Homo sapiens, 22Rv1, 72 h) was more than 20 µM.

On to `COc1cc(N(Cc2c(C)noc2C)C(=O)CSc2nc3ccccc3s2)cc(OC)c1OC` [Compound 12a, 2-(Benzo[d]thiazol-2-ylthio)-N-((3,5-dimethylisoxazol-4-yl)methyl)-N-(3,4,5-trimethoxyphenyl)acetamide], for which the IC50 with 22RV1 cells [2] (Homo sapiens, 22Rv1, 72 h) turned out to be 2.13 ± 0.24 µM; in the data set with PC3 cells [3], 2040 nM; in the data set on LNCAP cells it was 4.31 µM; in the data set with C42B cells it was 2810 nM; with tubulin, 2870 nM. In [4], this compound showed an IC50 at 72 h of more than 20 µM. Moreover, the “Effect on interphase microtubules” value in data set [5] (1 μM) is “moderately depolymerised interphase microtubules”; in [5] (4 μM), “much stronger depolymerisation effects”. Further, the “Formation of the EBI: β-tubulin adduct” value in data set [6] is on record as “prevented the formation of the EBI: β-tubulin adduct”. Also, the “Morphological changes (DAPI staining)” value in the data set on 22RV1 cells [7] and with PC3 cells [8] was “characteristic apoptotic morphological changes were observed” throughout. The “Expression level of Bcl-2” value in data set [9] and in [10] was “decreased” each time. Moreover, the “Expression level of Cleaved-parp” value in data set [9] and in data set [10] was “increased” in each case.

In the case of `COc1cc(N(Cc2ccncc2)C(=O)CSc2nc3ccccc3s2)cc(OC)c1OC` [Compound 12b, 2-(Benzo[d]thiazol-2-ylthio)-N-(pyridin-4-ylmethyl)-N-(3,4,5-trimethoxyphenyl)acetamide], the IC50 with 22RV1 cells [2] (Homo sapiens, 22Rv1, 72 h) amounted to 5.09 ± 0.62 µM.

Regarding `COc1cc(N(Cc2ccc(Cl)nc2)C(=O)CSc2nc3ccccc3s2)cc(OC)c1OC` [Compound 12c, 2-(Benzo[d]thiazol-2-ylthio)-N-((6-chloropyridin-3-yl)methyl)-N-(3,4,5-trimethoxyphenyl)acetamide], half-maximal inhibition in the data set with 22RV1 cells [2] (Homo sapiens, 22Rv1, 72 h) (IC50) was put at 11.8 ± 0.91 µM.

Take `COc1cc(N(Cc2ccc3ccccc3c2)C(=O)CSc2nc3ccccc3s2)cc(OC)c1OC` [Compound 12d, 2-(Benzo[d]thiazol-2-ylthio)-N-(naphthalen-2-ylmethyl)-N-(3,4,5-trimethoxyphenyl)acetamide]: the midpoint of inhibition with 22RV1 cells [2] (Homo sapiens, 22Rv1, 72 h), the IC50, lay at 6.93 ± 0.46 µM.
